Experimental data: patent US11319310B2, “Heterocyclyl-substituted oxadiazolopyridine derivatives for use as ghrelin O-acyl transferase (GOAT) inhibitors” (Boehringer Ingelheim International GmbH, priority 2018, dated 2022)

Target: T1, human GOAT (Homo sapiens, UniProt Q96T53)
T1 construct: expressed in transfected cells; host or cells: HEK293 (Hek293 hGOAT/PPGhrl Clone #1B8), stably transfected
T1 sequence (Q96T53 1-435): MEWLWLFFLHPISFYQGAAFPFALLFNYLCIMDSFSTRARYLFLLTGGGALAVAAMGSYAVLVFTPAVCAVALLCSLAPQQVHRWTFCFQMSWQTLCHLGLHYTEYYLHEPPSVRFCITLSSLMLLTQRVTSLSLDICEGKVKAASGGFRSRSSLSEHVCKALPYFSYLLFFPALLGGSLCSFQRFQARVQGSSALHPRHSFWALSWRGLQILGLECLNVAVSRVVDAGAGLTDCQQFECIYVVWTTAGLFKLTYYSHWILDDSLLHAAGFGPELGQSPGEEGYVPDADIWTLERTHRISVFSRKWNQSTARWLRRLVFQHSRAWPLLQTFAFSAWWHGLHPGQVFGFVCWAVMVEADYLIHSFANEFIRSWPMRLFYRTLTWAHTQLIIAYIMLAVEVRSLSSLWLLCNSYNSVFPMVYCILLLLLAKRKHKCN
Assay: Determination of hGOAT activity in HEK293 cells after incubation with test compound (acyl-ghrelin ELISA)
Assay type: cell-based
Details: HEK293 cells stably transfected with preproghrelin and human GOAT; octanoate-BSA 100 μM, 5 hours incubation; acyl-ghrelin in medium by ELISA; 8 compound concentrations
Method: Determination of hGOAT Activity in HEK293 Cells after Incubation with Test Compound
HEK293 cells stably transfected with two expression vectors, one coding for preproghrelin cDNA and a second for the expression of human GOATcDNA are used as a cellular model. After feeding the cells with octanoic acid for 5 hours, acyl-ghrelin is measured in cell culture medium by an ELISA procedure.
Cellline: Hek293 hGOAT/PPGhrl Clone #1B8 Sodium octanoate, Sigma, Cat.-No. C5038
BD Poly-D-Lysin 384-well Plates, black-clear polystyrene BD Bioscience Cat.-No. […] ELISA human acylated Ghrelin Kit purchased from Bertin Pharman (detailed composition of buffers e.g. wash-puffer, ELISA buffer not known) All further reagents used were of highest analytical grade available.
Cells are plated with a density of 5000 cells/well in 384-well poly-D-lysin plates and incubated for 1 day at 37° C., 5% CO2 in DMEM medium, 10% FCS, 1×NEAA, Puromycin (0.5 μg/ml) and G418 (1 mg/ml). Then the medium is changed to a identical medium without FCS and containing Octanoate-BSA (final concentration 100 μM each) and compound in DMSO (final DMSO concentration 0.3%). After incubation for 5 hours acylghrelin in the medium is measured by ELISA.
The medium sample is diluted 1:25 in Elisa buffer, a 25 μl aliquot is transferred to a 384-well ELISA plate previously washed 4 times with 100 μL wash buffer, and 25 μl tracer-solution is added. After incubation overnight (˜20 h) at 4° C. temperature the plate is washed 4 times with 100 μl wash-buffer per well. Finally 50 μl Ellman's reagent is added to each well and the plate is incubated in the dark for 20 minutes. The absorbance is measured at 405 nm in an Envision multilabel reader and the amount of acylated ghrelin is calculated according to a acylated ghrelin standard curve provided in the same plate.
The analysis of the data is performed by calculation of the percentage of acyl-ghrelin produced in the presence of test compound compared to the amount of acyl-ghrelin produced in the vehicle control samples. An inhibitor of the GOAT enzyme will give values between 100% CTL (no inhibition) and 0% CTL (complete inhibition).
IC50 values are calculated with Assay Explorer or other suited software based on curve fitting of results of 8 different compound concentrations.

| Compound | IC50 [nM] |
| --- | --- |
| Cc1nc2nonc2c(N)c1CN1CCC(C(F)F)CC1 [Example 1.1, 6-{[4-(Difluoromethyl)piperidin-1-yl]methyl}-5-methyl-[1,2,5]oxadiazolo[3,4-b]pyridin-7-amine] | 1.3 |
| Cc1nc2nonc2c(N)c1CN1CCC(C#N)CC1 [Example 1.2] | 3.6 |
| Cc1nc2nonc2c(N)c1CN1CCC(S(C)(=O)=O)CC1 [Example 1.3] | 4.1 |
| Cc1nc2nonc2c(N)c1CN1CCC(OC(F)(F)F)CC1 [Example 1.4] | 0.56 |
| Cc1nc2nonc2c(N)c1CN1CCN(C(=O)OC(C)(C)C)CC1 [Example 1.5, tert-Butyl 4-({7-amino-5-methyl-[1,2,5]oxadiazolo[3,4-b]pyridin-6-yl}methyl)piperazine-1-carboxylate] | 0.43 |
| Cc1nc2nonc2c(N)c1CN1CC(C(F)(F)F)C1 [Example 1.6] | 1.9 |
| Cc1nc2nonc2c(N)c1CN1CCC(C(F)(F)F)C1 (centres unmarked) [Example 1.7] | 0.56 |
| Cc1nc2nonc2c(N)c1CN1CCC(c2cccc(C(F)(F)F)c2)C1 (centres unmarked) [Example 1.8] | 1.4 |
| Cc1nc2nonc2c(N)c1CN1CCC(O)(C(F)(F)F)C1 (centres unmarked) [Example 1.9] | 1.1 |
| Cc1nc2nonc2c(N)c1CN1CCC(C(C)(C)O)C1 (centres unmarked) [Example 1.11] | 5 |
| Cc1nc2nonc2c(N)c1CN1CCC(F)(F)C1 [Example 1.12] | 7 |
| Cc1nc2nonc2c(N)c1CN1CCN(S(C)(=O)=O)CC1 [Example 1.13] | 5.2 |

Results, then the compound that gave them:

| IC50 [nM] | Compound |
| --- | --- |
| 5.7 | Cc1nc2nonc2c(N)c1CN1CCN(C(=O)C(F)(F)F)CC1 [Example 2.1, 1-[4-({7-Amino-5-methyl-[1,2,5]oxadiazolo[3,4-b]pyridin-6-yl}methyl)piperazin-1-yl]-2,2,2-trifluoroethan-1-one] |
| 0.64 | Cc1nc2nonc2c(N)c1CN1CCN(S(=O)(=O)C(F)(F)F)CC1 [Example 2.2] |
| 4.2 | Cc1nc2nonc2c(N)c1CN1CCN(C(=O)C2CC2)CC1 [Example 2.3] |
| 1.8 | Cc1nc2nonc2c(N)c1CN1CCN(S(=O)(=O)C2CC2)CC1 [Example 2.4] |
| 6.5 | COC(=O)N1CCN(Cc2c(C)nc3nonc3c2N)CC1 [Example 2.5] |
| 0.49 | Cc1nc2nonc2c(N)c1CN1CCN(S(=O)(=O)C(F)F)CC1 [Example 2.6] |
| 7.4 | Cc1nc2nonc2c(N)c1CN1CCCC(F)(F)C1 [Example 3.1, 6-(3,3-Difluoro-piperidin-1-ylmethyl)-5-methyl-[1,2,5]oxadiazolo[3,4-b]pyridin-7-ylamine] |
| 2.2 | Cc1nc2nonc2c(N)c1CN1CCC(F)(F)CC1 [Example 3.2] |
| 1.7 | Cc1nc2nonc2c(N)c1CN1CCCC(C(F)(F)F)C1 (centres unmarked) [Example 3.3] |
| 1.3 | Cc1nc2nonc2c(N)c1CN1CCC(C(F)(F)F)CC1 [Example 3.4] |
| 4 | Cc1nc2nonc2c(N)c1CN1CCOC(C)(c2ccc(F)cc2)C1 (centres unmarked) [Example 3.5] |
